Measured values from ChEMBL document CHEMBL3988442, “University of Dundee, Small-Polar-MMV Screening Library” (2021).

System: Schistosoma mansoni
Assay: High throughput screening of compounds against Schistosoma mansoni motility
Assay type: functional
Set-up: dose or concentration left out as unconfirmed

SMILES | Percent Effect [%]
Cc1nn(C)c(N(C)C)c1CNCC(O)COc1ccc(F)cc1 (stereo unspecified) | -41.92
Cc1csc(N2CCN(Cc3cnc(C)s3)CC2C)n1 (stereo unspecified) | -30.28
CC(C)C(=O)NCCNc1nccc(-c2cc(C(=O)O)ccn2)n1 | 19.02
O=C(c1cc(=O)[nH]c(=O)[nH]1)N1CCCCC1c1ccc(F)cc1 (stereo unspecified) | -6.768
COCc1cc(NCc2cc(F)ccc2F)n2nccc2n1 | -61.56
N#Cc1ccc(OC2CCN(C(=O)c3ccc4c(c3)OCO4)CC2)nc1 | -46.44
CC(C)(C)c1ccn(C2(C(=O)O)CCN(c3nccc(N)n3)CC2)n1 | 14.42
CN(C)C(=O)N1C[C@@H]2CC[C@H](C1)N(Cc1ccc3nsnc3c1)C2 | -20.59
COc1ccc(C2CCCN2C(=O)CCNc2ncccn2)cc1 (stereo unspecified) | -36.49
CC(C)c1nn(CC(=O)N2CCCCC2)c(=O)c2c1cnn2C(C)(C)C | -88.07
Cc1cc(C[C@@H]2COC[C@@H]2NC(=O)CN2CCCC2)on1 | -45.11
CN(CCN1CCCCC1)C(=O)c1cc(CN2CCOCC2)on1 | -21.55
Cc1nsc(N2CCCN(c3nc(C4CC4)ns3)CC2)n1 | -32.57
CC(C)(C(=O)NCC1CC1)c1ccccc1F | 9.48
COCCCC1(CO)CCCN(CCc2ccccc2)C1 (stereo unspecified) | -47.32
CN(CCCc1cnn(C)c1)C(=O)C1CCOC1 (stereo unspecified) | -54.96
Cc1cnccc1N1CCCN(C(=O)CCCS(N)(=O)=O)CC1 | -57.05
COc1ccc(NC(=O)NC(C)(C)c2noc(C)n2)cc1 | -52.77
CCn1c(N)nc2cc(C(=O)NCc3ccccc3Cl)cnc21 | -40.17
Cc1cc(CC(=O)N2CCN(CC3CC3)[C@@H]3CS(=O)(=O)C[C@@H]32)ccc1F | 11.19
Cc1nccc(N2CCC(=O)N(Cc3ccc(F)cc3)C(C(C)C)C2)n1 (stereo unspecified) | -22.84
O=C(CCc1ccccc1)C1CCCN(C(=O)c2ncc(F)cc2F)C1 (stereo unspecified) | -32.14
CCc1ncc2c(n1)CN(C(=O)COC)C2 | -20.5

SMILES | Percent Effect [%]
O=C(CN1CCCC1Cn1cncn1)Nc1cccnc1 (stereo unspecified) | -24.16
Cn1cnc(S(=O)(=O)N2CCN(Cc3ccco3)CC2)c1Cl | -70.1
Cc1n[nH]c(C)c1C1COCCN1C(=O)Cc1cccc(F)c1 (stereo unspecified) | -66.08
CCOc1ncccc1NC(=O)c1cc(C)c(C)s1 | -34.96
Cc1ccc(C(=O)N2CCCC2c2nnc3n2CCCCC3)o1 (stereo unspecified) | -40.92
Cc1cc(C[C@@H]2COC[C@@H]2NC(=O)CN2CCCN(C)CC2)on1 | -19.51
Cc1ccc(N2CCN(C(=O)COc3nccc(C)n3)CC2)nn1 | -46.68
CC(C)CNC(=O)NC(=O)CNc1ccccc1SCC(C)C#N (stereo unspecified) | -9.977
O=C(NCCn1ccc(-c2ccccn2)n1)c1ccncc1 | -46.65
CCn1nc(CC(C)C)cc1C(=O)NCCCOC | -69.66
CC(C)(C)C(=O)NCCC(=O)NS(=O)(=O)c1ccc2c(c1)OCCO2 | -42.92
Cc1c(Br)cccc1C(=O)NC(C)CN1CCCC1=O (stereo unspecified) | -4.935
CC(C)c1nnc2n1CC(CNCc1ccncc1)CC2 (stereo unspecified) | -34.29
CC[C@@]1(O)CCN(C(=O)c2ccc(-c3cccc(F)c3)cc2)C[C@H]1O | 16.9
NC(=O)c1cccc(CC2CCN(C(=O)CO)C2)c1 (stereo unspecified) | -14.33
CCc1cnc2c(c1NCc1ccncc1)c(=O)n(C)c(=O)n2C | -33.12
Cc1ccc(N2CCN(C(=O)COc3ccccc3)CC2)nn1 | -51.88
CN(CC(F)(F)F)C(=O)C1CSCN1C(=O)OC(C)(C)C (stereo unspecified) | -9.988
Cc1ccc(-c2cn[nH]c2C2CCCN(c3nccc(N)n3)C2)cc1 (stereo unspecified) | 94.46
CC(C)COC(C)C(=O)N1CCN(S(C)(=O)=O)CC1 (stereo unspecified) | -53.15
CCN1CCCC1CN(CCN(C)C)S(=O)(=O)c1cccc(C#N)c1 (stereo unspecified) | 27.57
Cc1nc(C)n(CC2CCCN(CCc3ccncc3)C2)n1 (stereo unspecified) | -44.91
COc1cccc(CNc2c(C)cnc3c2c(=O)n(C)c(=O)n3C)c1 | 5.662

SMILES | Percent Effect [%]
O=C(CCc1nccs1)N1CCC(N2CCNC2=O)CC1 | -51.15
CCN(CC)C(=O)c1ccc(-c2ccsc2)nc1C | -45.64
CCCS(=O)(=O)Nc1ccc2c(c1)OCC(C)(C)C(=O)N2C | 7.848
O=C(CSc1nc2c(cnn2CCO)c(=O)[nH]1)N1CCCCCC1 | -11.33
COc1ccc(CNCCc2cc(F)cc3c2OCOC3)cc1O | -21.14
CC(C)(C)c1cc(CN2CC[C@@H](NC(=O)c3cccnc3)[C@H](O)C2)n[nH]1 | -5.341
COc1ccccc1OCC(=O)NCC(O)(c1ccccc1)C1CC1 (stereo unspecified) | -13.46
CCc1ncc2c(n1)CN(Cc1nnc(C)o1)CC2 | -12.75
COc1ccc(NC(=O)N2CCN(c3ncccn3)CC2)cn1 | -75.2
Cc1ccc(C(=O)O)cc1S(=O)(=O)Nc1nn(-c2ccccc2)cc1C | -27.39
CCc1nc(CN2CCCN(Cc3cnn(C)c3)CC2)no1 | -82.4
COc1ccccc1OCc1cc(C(=O)N2C[C@H](O)[C@@H](N(C)C)C2)n[nH]1 | -29.56
Cc1noc(C)c1CN1C(=O)[C@H]2CC[C@@H]1CN(Cc1cccnc1N)C2 | -25.95
CCc1nnc(CN(C)c2nc(C3CCCC3)nc3c2cnn3C)o1 | 1.111
Cc1nc(C)n(CC2CN(CC(=O)Nc3cccnc3)CCO2)n1 (stereo unspecified) | -4.464
O=C(CCc1ccccc1)Nc1ncccc1OC(F)F | -1.295
CCC(O)CNC(=O)c1coc(COc2ccc3sc(C)nc3c2)n1 (stereo unspecified) | -24.85
Cc1ccc2cc(C3(O)CCN(C(=O)CN4CCCC4)CC3)ccc2n1 | 5.836
Cc1cc(C[C@@H]2COC[C@@H]2NC(=O)Cn2c(=O)oc3ccccc32)on1 | -26.12
CCCN1CCC(NC(=O)c2ccc(F)cc2I)CC1 | 16.82
COc1ccc(Br)c(C(=O)NCC2CCN(S(=O)(=O)C3CC3)CC2)c1 | -3.942
CCC1CN(Cc2ccccc2)CCN1Cc1nnc(C2CCC2)o1 (stereo unspecified) | 44.59
O=C(NCCCn1nc2ccccn2c1=O)NC1CCC(O)CC1 (stereo unspecified) | -74.25

SMILES | Percent Effect [%]
O=C(CSCC1CC1)N1CCCC(c2nccn2Cc2ccncc2)C1 (stereo unspecified) | 9.639
CCCc1nnsc1C(=O)NCC1CCN(S(C)(=O)=O)CC1 | -25.98
Cc1cc(C)n(Cc2ccc(C(=O)NCCN3CCOCC3)cc2)n1 | -9.196
CCCOc1cc(C)ccc1NC(=O)NCCC(=O)N(C)C | -17.12
Cc1c[nH]c(CN(C)c2nc(C3CCCC3)nc3c2cnn3C)n1 | -22.17
CC(=O)NC(C)CC(=O)NCc1cccnc1Oc1ccccc1C (stereo unspecified) | 11.59
Cc1cccc(CNCc2c(C(C)C)nn(C)c2N2CCOCC2)n1 | -46
COCCN1CCC(CN(CC2CCCO2)C(=O)COC)CC1 (stereo unspecified) | 27.45
CSCCCNC(=O)Nc1cccc(-c2nccn2C)c1 | -33.04
COc1cccc(S(=O)(=O)NC2CNC(=O)C2)c1 (stereo unspecified) | -3.901
Cc1n[nH]c(C)c1C1CCCN1C(=O)NCC(=O)NC(C)(C)C (stereo unspecified) | -7.96
CN(C)C(=O)C1CCCN1CCCNC(=O)c1ccccc1F (stereo unspecified) | -45.94
CCCc1cc(=O)[nH]c2nnc(SCC(=O)NCc3ccc(C)cc3)n12 | -78.33
CCCNC(=O)CSc1nnc2[nH]c(=O)cc(CC)n12 | -63.88
CCC(C)NC(=O)Nc1ccc(CN2CCOC2=O)cc1 (stereo unspecified) | 3.949
CCc1nc(CN2CCCC(N(C)Cc3cnn(C)c3)C2)no1 (stereo unspecified) | -19.11
O=C1CCSCC(C(=O)N2CCOCC2)N1 (stereo unspecified) | -55.74
OC1CCN(Cc2cc3c(cc2Br)OCCO3)CC1 | 8.478
Cn1cnnc1S(=O)(=O)C1CCN(S(=O)(=O)c2ccc(F)c(Cl)c2)CC1 | -43.49
CCc1cc(=O)[nH]c2nnc(SCC(=O)OC)n12 | -72.76
CCc1ncc2c(n1)CN(Cc1nc(C)c(C)o1)CC2 | -33.77
CC1CN(C)c2ccccc2CN1C(=O)CSc1ccncc1 (stereo unspecified) | 7.617
COc1cccc(N2CCN(Cc3ccc(NC(C)=O)cc3)CC2=O)c1 | -11.44

SMILES | Percent Effect [%]
CCn1nc2c(cc1=O)CN(Cc1nc3ccccc3c(=O)[nH]1)CC2 | -62.65
CC(CN1CCOCC1)NCC1CCN(c2cnn(C)c(=O)c2)CC1 (stereo unspecified) | 33.93
CC(C)c1cnc(CNc2c(F)cccc2-n2cccn2)o1 | 20.62
CNC(=O)CSc1nc2c(cnn2Cc2ccc(F)cc2)c(=O)[nH]1 | -34.73
COc1ccccc1S(=O)(=O)N1CCC(Oc2cccnn2)CC1 | -19.77
Cc1cc(CN2CCN(C(=O)C(C)C)[C@@H]3CS(=O)(=O)C[C@@H]32)ccc1F | 10.81
Cc1cnn(CCC(=O)N2CCOC(c3nc(C(C)(C)C)n[nH]3)C2)c1 (stereo unspecified) | -4.27
CN(C)C(=O)c1ccc2c(c1)N(C)C(CC(=O)NCCC(C)(C)C)CO2 (stereo unspecified) | -13.7
CN(C)C(C(=O)N1CCCC1)c1ccccc1F (stereo unspecified) | -55.33
Cc1nn(C)c(N2CCOCC2)c1CNC(C)c1cccnc1 (stereo unspecified) | -13.95
Cc1cnn(CC(C)NCc2nc(-c3cccnc3)no2)c1 (stereo unspecified) | -19.9
COCc1cc(NCCc2ccc(F)cc2)n2nccc2n1 | -25.55
Cc1cccnc1CN1CCC(c2nnc(Cn3cccn3)n2C)CC1 | -11.55
Nc1cc(CCCNC(=O)NC2CC2)nn1-c1ccccc1 | -35.32
COc1ccccc1OCc1cc(C(=O)N2CC=CC2C(C)C)n[nH]1 (stereo unspecified) | -26.69
Cc1cn(-c2ccccc2)nc1NS(=O)(=O)c1cccc(C(=O)O)c1 | -30.44
O=C(NCC1CC1)C1CSCN1S(=O)(=O)c1cccc(F)c1 (stereo unspecified) | -77.75
Cc1ccnc(OCC(=O)N2CCC(C(N)=O)CC2)n1 | -71.31
CCCS(=O)(=O)c1ncc(CN2CCC(CO)CC2)n1CC1CCCO1 (stereo unspecified) | -65.7
